From patent US20070004660A1, “Synergistic Modulation of Flt3 Kinase Using Alkylquinolines and Alkylquinazolines” (priority 2005, published 2007)
Where two headings read alike, the source gives them in different places.

Assays:
[1] = system: FLT3; assay: FLT3 phosphorylation in MV4-11 tumors from treated mice (immunoblot); type: in vivo, human; details: single dose 100 mg/kg po, tumors harvested 2 hours later
Procedure: To establish further that FLT3 inhibitors of Formula I′ reached the expected target in tumor tissue, the level of FLT3 phosphorylation in tumor tissue obtained from vehicle- and compound-treated mice was measured. Results for FLT3 inhibitor Compound B (Compound 73 of Formula I′) and FLT3 inhibitor Compound C (Compound 74 of Formula I′) are shown in FIG. 3 and FIG. 4, respectively. For this pharmacodynamic study, a sub-set of 10 mice from the vehicle-treated control group were randomized into two groups of 5 mice each and then treated with another dose of vehicle or compound (100 mg/kg, po). Tumors were harvested 2 hours later and snap frozen for assessment of FLT3 phosphorylation by immunobloting.
Harvested tumors were processed for immunoblot analysis of FLT3 phosphorylation in the following manner: 100 mg of tumor tissue was dounce homogenized in lysis buffer (50 mM Hepes, 150 mM NaCl, 10% Glycerol, 1% Triton-X-100, 10 mM NaF, 1 mM EDTA, 1.5 mM MgCl2, 10 mM NaPyrophosphate) supplemented with phosphatase (Sigma Cat# P2850) and protease inhibitors (Sigma Cat #P8340). Insoluble debris was removed by centrifugation at 1000×g for 5 minutes at 4° C. Cleared lysates ([…] of total potein at 10 mg/ml in lysis buffer) were incubated with 10 μg of agarose conjugated anti-FLT3 antibody, clone C-20 (Santa Cruz cat # sc-479ac), for 2 hours at 4° C. with gentle agitation. […]

[2] = system: MV4-11 AML cells; assay: Cell proliferation assay, single agents and FTI/FLT3 inhibitor combinations, MV4-11; type: cell-based, human; details: Homo sapiens, MV4-11; proliferation; FLT3 inhibitor alone or, in combination lines, in the combination
Procedure: Dose responses for the individual compounds alone were determined for each cell line using a standard 72-hour cell proliferation assay (see FIGS. 6.1-6.8). The standard chemotherapeutic agent Cytarabine was used as a control cytotoxic agent in all experiments. […] The FLT3 inhibitors, Compounds A, B, C, D, E, F G and H individually have good potency (sub-micromolar) for the inhibition of FLT3 driven proliferation (compared to the first line cytotoxic agent Cytarabine and Tipifarnib) in cells that depend on FLT3 for growth. Each of these chemically distinct compounds alone has potential for the treatment of disorders related to FLT3, such as FLT3 positive AML. […] The FLT3 inhibitors tested had no effect on THP-1 proliferation. […] (See FIGS. 10.1-10.8 and Tables 1-3, hereafter.)
To statistically evaluate the synergy of a FLT3 inhibitor and an FTI in FLT3 dependent cell lines, dosing combinations were evaluated by the method of Chou and Talalay. See Chou T C, Talalay P. (1984) “Quantitative analysis of dose-effect relationships: the combined effects of multiple drugs or enzyme inhibitors.” Adv Enzyme Regul. 22:27-55. […] Using this method, multiple FTI and FLT3 combinations were evaluated. […]
Cell proliferation assay for MV4-11, Baf3-ITD, Baf3-FLT3 and THP-1 cells. […] Total cell growth is quantified as the difference in luminescent counts (relative light units, RLU) of cell number at Day 0 compared to total cell number at Day 3 (72 hours of growth and/or compound treatment). One hundred percent inhibition of growth is defined as an RLU equivalent to the Day 0 reading. […]
Combination Index Analysis. To determine growth inhibition synergy of a FTI and FLT3 inhibitor combination based on the method of Chou and Talalay (Chou and Talalay. See Chou T C, Talalay P. (1984) “Quantitative analysis of dose-effect relationships: the combined effects of multiple drugs or enzyme inhibitors.” Adv Enzyme Regul. 22:27-55. ), fixed ratio combination dosing with isobolar statistical analysis was performed. […]

[3] = system: MV-4-11 tumor xenografts; assay: In vivo combination study, FLT3 inhibitor Compound B and Tipifarnib, MV-4-11 xenografts; details: for effect on tumor growth compared to Vehicle-treated group: nine days
Procedure: The effect of combination treatment of the FLT3 Inhibitor FLT3 inhibitors of Formula I′ and Tipifarnib (Zarnestra™) on the growth of MV-4-11 human AML tumor xenografts in nude mice was tested using FLT3 inhibitor Compound B. The in vivo study was designed to extend the in vitro observations to evaluate the potential for a synergistic anti-tumor effect of FLT3 inhibitor Compound B administered orally together with Tipifarnib to nude mice bearing established MV-4-11 tumor xenografts.

[4] = system: MV4-11 tumor xenografts; details: for reduction of final tumor weight compared to vehicle-treated group / tumor regression, decrease versus starting mean tumor volume on Day 1: 11 days; for decrease of mean tumor volume compared to vehicle-treated group: Day 11
Procedure: The oral anti-tumor efficacy of a subset of the compounds of the invention was evaluated in vivo using a nude mouse MV4-11 human tumor xenograft regression model.

For `CN1CCN(CCCOc2ccc3c(C4CCN(C(=O)Nc5ccc(N6CCOCC6)cc5)CC4)ncnc3c2)CC1` [FLT3 inhibitor Compound B, 4-{7-[3-(4-Methyl-piperazin-1-yl)-propoxy]-quinazolin-4-yl}-piperidine-1-carboxylic acid (4-morpholin-4-yl-phenyl)-amide], the “level of FLT3 phosphorylation in MV4-11 tumors versus vehicle” value [1] was “biologically significant reduction”, the IC50 [2] was 31.3 nM and the “effect on tumor growth compared to Vehicle-treated group” value ([3]; 10 mg/kg bid po) was “marginal significant inhibition of tumor growth”. For the same molecule, the “effect on tumor growth compared to Vehicle-treated group” value ([3]; 20 mg/kg bid po) was “tumor growth stasis”, the overt toxicity ([3]; 9-day treatment, either agent alone or in combination) was “No overt toxicity” and the “reduction of final tumor weight compared to vehicle-treated group” value (from here on “reduction of final tumor weight”) ([4]; 10 mg/kg b.i.d. po) was 48%. For the same molecule, the “decrease of mean tumor volume compared to vehicle-treated group” value (“decrease of mean tumor volume” below) ([4]; 10 mg/kg b.i.d. po) was 44%, the “reduction of final tumor weight” value ([4]; 30 mg/kg b.i.d. po) was 85% and the “tumor regression, decrease versus starting mean tumor volume on Day 1” value ([4]; 30 mg/kg b.i.d. po) was 42%. The “decrease of mean tumor volume” value ([4]; 30 mg/kg b.i.d. po) was 84%, the “reduction of final tumor weight” value ([4]; 100 mg/kg b.i.d. po) was 99% and the “tumor regression, decrease versus starting mean tumor volume on Day 1” value ([4]; 100 mg/kg b.i.d. po) was 77%. For the same molecule, the “decrease of mean tumor volume” value ([4]; 100 mg/kg b.i.d. po) was 94%.
